Data: PubChem BioAssay AID1918930 (Molecular Pharmacology Branch, DTP, NCI, 2023)

Test system: 233499-124-R-J3-PDC complex spheroid viability, % test/control
Experiment: Anticancer human tumor 233499-124-R-J3-PDC patient-derived colon adenocarcinoma cell line growth inhibition
Conditions: for IC50: curve of first compound; for viability, T/C: stronger effect = lower value
Text: Multicellular complex tumor spheroid response to LSD1 Inhibitor Iadademstat in combination with a variety of drugs and investigational agents in selected tumor cell lines
The current study was undertaken to assess response to LSD1 inhibitors in combination with standard-of-care drugs and investigational agents in solid tumor complex spheroid models as well as in the K-562 leukemia. Complex spheroids include a stromal component modeled by human endothelial cells (HUVEC) and fibroblasts modeled by human mesenchymal stem cells (MSCs). The concentration ranges selected for each drug and investigational agent were based upon clinically achievable concentrations if the clinical Cmax of the agent was known.
Compounds. The drugs and investigational agents used in this study are listed on Table 1. All of the agents used, including staurosporine (NSC755774) and gemcitabine (NSC613327), were obtained from the Developmental Therapeutics Program, NCI. FDA-approved anticancer drugs are available from the NCI at http://dtp.nci.nih.gov/branches/dscb/oncology_drugset_explanation.html. Drugs and investigational agents were >95% pure by proton nuclear magnetic resonance (NMR) and liquid chromatography/mass spectrometry (LC/MS). Stock solutions were prepared at 400x in DMSO, stored at -70 degrees C, and diluted in fresh medium prior to their use. The final concentration of DMSO in cell culture wells never exceeded 0.25% (v/v). The FDA-approved anticancer drug set is available from the Developmental Therapeutics Program at https://dtp.cancer.gov/organization/dscb/obtaining/available_plates.htm. All drugs and investigational agents were tested over a range starting from a high concentration at or near the clinical Cmax and decreasing in half-log increments. If the clinical Cmax for an agent had not been determined, the highest concentration tested was 10 microM.
Cell Lines. The patient-derived cancer cell (PDC) lines: 292921-168-R-J2-PDC, K24384-001-R-PDC, and 521955-158-R2-J5-PDC pancreatic carcinomas, 556581-035-R-J1 ovarian carcinoma, 324938-238-R-J1-PDC, 855422-203-R-J1-PDC and 883617-216-R-J1-PDC urothelial bladder carcinomas, 743489-274-T-PDC renal cell carcinoma, 138582-R-J1 Merkel cell tumor, K60290-347-R-J1 and K57222-313-R-J1-PDC glioblastomas, 653999-131-R-J2-PDC, LG0703-F948-PDC, and 349418-098-R-PDC non-small cell lung carcinomas, 885512-296-R-J2-PDC, 171881-019-R-J1-PDC breast carcinomas and 186277-243-T-J2-PDC and 233499-124-R-J2-PDC colon carcinomas were obtained from the NCI Patient-Derived Models Repository (PDMR, https://pdmr.cancer.gov). The established cell lines NCI/ADR-RES (RRID:CVCL_14520 and OVCAR-5 (RRID:CVCL_1628) ovarian carcinomas, 786-O (RRID:CVCL_1051) and A498 (RRID:CVCL_A498) renal cell carcinoma, NCI-H211 (ATCC, cat. CRL-5824; RRID:CVCL_1529), NCI-H196 (ATCC, cat. CRL-5823, RRID:CVCL_1509), SW 1271 (ATCC, cat. CRL-2177, RRID:CVCL_1716) and NCI-H1876 (ATCC, cat. CRL-5902, RRID:CVCL_1503) small cell lung carcinomas, MDA-MB-231 (RRID:CVCL_0062) and MDA-MB-468 (RRID:CVCL_0419)breast carcinomas (10-12). Pooled donor human umbilical vein endothelial cells (HUVEC, Lonza, cat. CC-2519) and human mesenchymal stem cells (hMSC, Lonza, cat. PT-2501) were purchased from Lonza (Walkersville, MD).
Cell Culture. All cells were maintained in an incubator at 37 degrees C and 5% CO2 with 95% humidity. The PDC lines were cultured according to standard operating procedures established by the NCI PDMR (https://pdmr.cancer.gov). Briefly all PDCs were thawed and cultured in Matrigel-coated flasks prepared with a working solution of 1X Ham's F-12 nutrient mix, without supplementation (Invitrogen, Waltham, MA, cat. 11765054), 100 U/mL penicillin-streptomycin (Invitrogen, cat. 15140122), and 2.5% Matrigel (Corning Inc., Corning, NY, cat. 354248) for the first three passages. […]
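Further: spheroids exposed to agents for one week before readout.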

CC1COCCN1c1cc(C2(S(C)(=N)=O)CC2)nc(-c2ccnc3[nH]ccc23)n1 (stereo not given) + NC1CC1c1ccc(-c2cccc(O)c2)cc1
IC50 (second compound 0.1 µM): > 10 µM
IC50 (second compound 0.316 µM): > 10 µM
IC50 (second compound 1 µM): > 10 µM
IC50 (second compound 3.16 µM): 4.43 µM
IC50 (second compound 10 µM): 3.1 µM
viability, T/C (second compound 0.1 µM, first compound 0.0316 µM): 110%
viability, T/C (second compound 0.1 µM, first compound 0.1 µM): 98.1%
viability, T/C (second compound 0.1 µM, first compound 0.316 µM): 109%
viability, T/C (second compound 0.1 µM, first compound 1 µM): 95.5%
viability, T/C (second compound 0.1 µM, first compound 3.16 µM): 57%
viability, T/C (second compound 0.1 µM, first compound 10 µM): 65.6%
viability, T/C (second compound 0.316 µM, first compound 0.0316 µM): 105%
viability, T/C (second compound 0.316 µM, first compound 0.1 µM): 114%
viability, T/C (second compound 0.316 µM, first compound 0.316 µM): 101%
viability, T/C (second compound 0.316 µM, first compound 1 µM): 87.6%
viability, T/C (second compound 0.316 µM, first compound 3.16 µM): 60.5%
viability, T/C (second compound 0.316 µM, first compound 10 µM): 69.3%
viability, T/C (second compound 1 µM, first compound 0.0316 µM): 95.6%
viability, T/C (second compound 1 µM, first compound 0.1 µM): 92.5%
viability, T/C (second compound 1 µM, first compound 0.316 µM): 93.9%
viability, T/C (second compound 1 µM, first compound 1 µM): 87.8%
viability, T/C (second compound 1 µM, first compound 3.16 µM): 59.7%
viability, T/C (second compound 1 µM, first compound 10 µM): 52.7%
viability, T/C (second compound 3.16 µM, first compound 0.0316 µM): 108%
viability, T/C (second compound 3.16 µM, first compound 0.1 µM): 96.3%
viability, T/C (second compound 3.16 µM, first compound 0.316 µM): 90.3%
viability, T/C (second compound 3.16 µM, first compound 1 µM): 70.1%
viability, T/C (second compound 3.16 µM, first compound 3.16 µM): 48.6%
viability, T/C (second compound 3.16 µM, first compound 10 µM): 47.1%
viability, T/C (second compound 10 µM, first compound 0.0316 µM): 92.2%
viability, T/C (second compound 10 µM, first compound 0.1 µM): 77.5%
viability, T/C (second compound 10 µM, first compound 0.316 µM): 80.6%
viability, T/C (second compound 10 µM, first compound 1 µM): 78.2%
viability, T/C (second compound 10 µM, first compound 3.16 µM): 45.3%
viability, T/C (second compound 10 µM, first compound 10 µM): 53.8%

CCN(c1cc(-c2ccc(CN3CCOCC3)cc2)cc(C(=O)NCc2c(C)cc(C)[nH]c2=O)c1C)C1CCOCC1 + NC1CC1c1ccc(-c2cccc(O)c2)cc1
IC50 (second compound 0.1 µM): > 3 µM
IC50 (second compound 0.316 µM): > 3 µM
IC50 (second compound 1 µM): 2.5 µM
IC50 (second compound 3.16 µM): > 3 µM
IC50 (second compound 10 µM): 1.86 µM
viability, T/C (second compound 0.1 µM, first compound 0.00949 µM): 97.3%
viability, T/C (second compound 0.1 µM, first compound 0.03 µM): 99.1%
viability, T/C (second compound 0.1 µM, first compound 0.0949 µM): 111%
viability, T/C (second compound 0.1 µM, first compound 0.3 µM): 115%
viability, T/C (second compound 0.1 µM, first compound 0.949 µM): 98.4%
viability, T/C (second compound 0.1 µM, first compound 3 µM): 51.8%
viability, T/C (second compound 0.316 µM, first compound 0.00949 µM): 117%
viability, T/C (second compound 0.316 µM, first compound 0.03 µM): 124%
viability, T/C (second compound 0.316 µM, first compound 0.0949 µM): 112%
viability, T/C (second compound 0.316 µM, first compound 0.3 µM): 129%
viability, T/C (second compound 0.316 µM, first compound 0.949 µM): 98.5%
viability, T/C (second compound 0.316 µM, first compound 3 µM): 50.8%
viability, T/C (second compound 1 µM, first compound 0.00949 µM): 97%
viability, T/C (second compound 1 µM, first compound 0.03 µM): 99.7%
viability, T/C (second compound 1 µM, first compound 0.0949 µM): 93.7%
viability, T/C (second compound 1 µM, first compound 0.3 µM): 107%
viability, T/C (second compound 1 µM, first compound 0.949 µM): 85%
viability, T/C (second compound 1 µM, first compound 3 µM): 43.4%
viability, T/C (second compound 3.16 µM, first compound 0.00949 µM): 99%
viability, T/C (second compound 3.16 µM, first compound 0.03 µM): 105%
viability, T/C (second compound 3.16 µM, first compound 0.0949 µM): 90.5%
viability, T/C (second compound 3.16 µM, first compound 0.3 µM): 80.7%
viability, T/C (second compound 3.16 µM, first compound 0.949 µM): 77.2%
viability, T/C (second compound 3.16 µM, first compound 3 µM): 53.9%
viability, T/C (second compound 10 µM, first compound 0.00949 µM): 79.3%
viability, T/C (second compound 10 µM, first compound 0.03 µM): 88.6%
viability, T/C (second compound 10 µM, first compound 0.0949 µM): 84.7%
viability, T/C (second compound 10 µM, first compound 0.3 µM): 93.2%
viability, T/C (second compound 10 µM, first compound 0.949 µM): 65.8%
viability, T/C (second compound 10 µM, first compound 3 µM): 38.8%
